Reference: patent US20260235610A1, “METHOD OF PREDICTING SUCCESS OF A CANCER THERAPY” (IMMUSMOL SAS, priority 2023, published 2026)

Experiments:
TPH1 = biological target: T1, TPH1 (Homo sapiens, UniProt P17752); test: Tryptophan metabolites (Trp, 5HTP, 5HT and ratios) in QGP1-conditioned media as surrogate of TPH1 activity; type: cell-based; conditions: QGP1 cells cultured 48 hours; for effect on C-Media decrease in Trp level and concomitant increase of 5HTP, 5HT, 5HTP/Trp and 5HT/Trp ratios: Telotristat 1 μM, PEA 300 μM, versus C-Media alone
T1 construct: QGP1 neuroendocrine tumor cell line characterized by a high TPH1 expression and activity; endogenous in cells; host or cells: QGP-1 neuroendocrine tumor cell line
T1 sequence (P17752 1-444): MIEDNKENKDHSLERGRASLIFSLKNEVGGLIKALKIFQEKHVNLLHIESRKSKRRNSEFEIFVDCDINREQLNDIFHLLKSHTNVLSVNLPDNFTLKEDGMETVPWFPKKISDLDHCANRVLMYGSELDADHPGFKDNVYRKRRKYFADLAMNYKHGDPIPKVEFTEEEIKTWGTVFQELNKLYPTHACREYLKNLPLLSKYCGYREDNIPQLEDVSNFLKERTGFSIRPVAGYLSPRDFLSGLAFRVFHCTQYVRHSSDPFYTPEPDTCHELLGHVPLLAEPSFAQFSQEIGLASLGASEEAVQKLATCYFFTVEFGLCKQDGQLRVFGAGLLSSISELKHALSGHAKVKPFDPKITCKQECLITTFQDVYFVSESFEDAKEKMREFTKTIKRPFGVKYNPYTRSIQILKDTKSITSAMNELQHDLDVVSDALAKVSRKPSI
Experimental: The impact of TPH1^High conditioned culture media (C-Media) on immune cell activation was evaluated. QGP1 neuroendocrine tumor cell line characterized by a high TPH1 expression and activity was cultured over a 48-hour period in the presence and absence of Telotristat (TPH1 inhibitor) or Phenethylamine (PEA) alone and in the presence of Telotristat.
The media characteristics were as follows: • i) NC-Media • ii) C-Media • iii) C-Media+Telotristat (TPH1 inhibitor) • iv) C-Media+Phenethylamine (PEA) • v) C-Media+Telotristat (TPH1 inhibitor)+Phenethylamine (PEA)
(§1) The QGP-1 cell line was cultured in RPMI-1640 medium, supplemented with 10% (v/v) FCS and penicillin-streptomycin in a humidified incubator at 5% CO2 and 37° C. In order to prepare the conditioned media, cells were cultured in 6-well plates for 48 hours in the presence and absence of Telotristat (1 μM), a TPH1 inhibitor, and in the presence and absence of Phenethylamine (PEA; 300 μM), a TPH1 inducer (Zhai et al., 2023). QGP1-conditioned media (C-Media) were used to culture human PBMCs (Peripheral Blood Mononuclear Cells) originating from one healthy donor for a 72-hour period under anti-CD3 activation (0.5 μg/mL). As control, fresh cell culture media (Non-Conditioned Media (NC-Media) was used.
Each analytes-Tryptophan (Trp), 5-hydroxyTryptopan (5HTP) and Serotonin (5HT)-were measured individually and then used to calculate ratio, i.e. 5HTP/Trp and 5HT/Trp as representative surrogate of TPH1 activity.
Tryptophan was quantified using an immunoassay (#BA-E-2700, ImmuSmol, Bordeaux, FRANCE). Briefly, in order to remove proteins, 20 μL of sample were precipitated, vortexed and then centrifuged for 15 minutes (3,000 g, at 4° C.). Twenty five microliters of supernatant were then used for derivatization for a 2 hour period at room temperature. Once the derivatization was achieved, 25 μL of the solution was applied on a 96-microtiters prior addition of 50 μL of anti-Tryptophan antiserum. […]
5-HdroxyTryptophan was quantified using an immunoassay. […]
Serotonin was quantified using an immunoassay (#BA-E-5900R, ImmuSmol, Bordeaux, FRANCE). […]

human PBMCs = test: anti-CD3 mediated PBMCs activation in QGP1-conditioned media, IFN-γ measurement by HTRF; type: cell-based; conditions: anti-CD3 0.5 μg/mL; for effect on C-Media induced decrease in anti-CD3 mediated PBMCs activation (IFN-γ): PBMCs of one healthy donor, 72 hours, conditioned media prepared with Telotristat 1 μM or PEA 300 μM
Experimental: Culture supernatant was then collected and applied on peripheral blood mononuclear cells (PBMCs) cultivated under anti-CD3-based activation for 3-days.
as §1
At the end of PBMCs treatment period as described above, cell culture supernatants were collected and subjected to IFN-γ measurement by mean of HTRF (Homogeneous Time Resolved Technology, Perkin Elmer) which serves as a surrogate of immune cell activation (FIG. 12). HTRF is a standard technique well-known in the art and therefore perfectly within the routine of the skilled person.

| Compound | effect on C-Media decrease in Trp level and concomitant increase of 5HTP, 5HT, 5HTP/Trp and 5HT/Trp ratios (TPH1) | effect on C-Media induced decrease in anti-CD3 mediated PBMCs activation (IFN-γ) (human PBMCs) | effect on PEA-induced TPH1 activity (TPH1; Telotristat 1 μM plus PEA 300 μM) | effect on the more limited immune cell activation associated with PEA-induced TPH1 activation (IFN-γ) (human PBMCs; PBMCs 72 hours, conditioned media prepared with Telotristat 1 μM plus PEA 300 μM) |
| --- | --- | --- | --- | --- |
| NCCc1ccccc1 [PEA, Phenethylamine] | further increased | increased | – | – |
| Cc1ccn(-c2cc(Cl)ccc2[C@@H](Oc2cc(-c3ccc(C[C@H](N)C(=O)O)cc3)nc(N)n2)C(F)(F)F)n1 [Telotristat] | largely limited | limited | able to limit PEA-induced TPH1 activity | alleviated |
